Assay results: US20230321246A1, “HIGH-STRENGTH ORAL TAXANE COMPOSITIONS AND METHODS” (ATHENEX HK INNOVATIVE LIMITED, priority 2017, published 2023)

Tests used:
in vivo [1] = conditions: male, beagle, dog, iv, 2 mg/kg
in vivo [2] = conditions: male, beagle, dog, iv, 2 mg/kg; remark: listed apart in the source

CC(=O)O[C@H]1C(=O)[C@@]2(C)[C@H]([C@H](OC(=O)c3ccccc3)[C@]3(O)C[C@H](OC(=O)[C@H](O)[C@@H](NC(=O)c4ccccc4)c4ccccc4)C(C)=C1C3(C)C)[C@]1(OC(C)=O)CO[C@@H]1C[C@@H]2O [Paclitaxel, paclitaxel]
AUC(0-inf) (in vivo [1]): 1950 ng·h/mL
AUC(0-t) (in vivo [1]): 1840 ng·h/mL
Cmax (in vivo [1]): 1690 ng/mL
MRT (in vivo [1]): 3.67 h
Tmax (in vivo [1]): 1 h
Vd (in vivo [1]): 6.59 L/kg
clearance (in vivo [1]): 19.3 mL/min/kg
AUC(0-inf) (in vivo [2]): 768 ng·h/mL
AUC(0-t) (in vivo [2]): 701 ng·h/mL
Cmax (in vivo [2]): 811 ng/mL
MRT last (in vivo [2]): 5.26 h
Tmax (in vivo [2]): 0 h
Vd (in vivo [2]): 2.1 L/kg
clearance (in vivo [2]): 44.3 mL/min/kg
half-life (in vivo [2]): 454 min
